# Results as given in ChEMBL document CHEMBL1150785 (Antimicrob Agents Chemother, 2007).
# System: Mycobacterium tuberculosis
# Assay: Effect on mutation frequency of Mycobacterium tuberculosis H37Ra assessed as mutation prevention concentration
# Assay type: functional
compound,measurement,value
NNC(=O)c1ccncc1 [ISONIAZID],Activity,50 mg/L
